From US20250163104A1, “MACROCYCLIC IMMUNOMODULATORS” (priority 2021, published 2025) come the findings set out here.

The structures appear in SMILES notation. Where a SMILES comes first, the peptide text is derived from it. Bridges are numbered along the chain shown (N, C = ends). [ ]: non-standard residue; d: D form. The star is where a group is joined. Phe(3,4,5-F3) = N[C@@H](Cc1cc(F)c(F)c(F)c1)C(=O)O; Phe(3,4-Cl2) = N[C@@H](Cc1ccc(Cl)c(Cl)c1)C(=O)O; Phe(3-CF3) = N[C@@H](Cc1cccc(C(F)(F)F)c1)C(=O)O; Phe(2,4-Cl2) = N[C@@H](Cc1ccc(Cl)cc1Cl)C(=O)O; Phe(3,5-F2) = N[C@@H](Cc1cc(F)cc(F)c1)C(=O)O; Phe(2,4-F2) = N[C@@H](Cc1ccc(F)cc1F)C(=O)O; Bip = N[C@@H](Cc1ccc(-c2ccccc2)cc1)C(=O)O; Phe(3-OMe) = COc1cccc(C[C@H](N)C(=O)O)c1; Phe(4-Cl) = N[C@@H](Cc1ccc(Cl)cc1)C(=O)O; Phe(4-NH2) = Nc1ccc(C[C@H](N)C(=O)O)cc1; Phe(3-Me) = Cc1cccc(C[C@H](N)C(=O)O)c1; Phe(4-Me) = Cc1ccc(C[C@H](N)C(=O)O)cc1; mTyr = N[C@@H](Cc1cccc(O)c1)C(=O)O; Carboxymethyl = O=C(O)C*; Orn = NCCC[C@H](N)C(=O)O; Dab = NCC[C@H](N)C(=O)O; Dap = NC[C@H](N)C(=O)O

In this test the target is T1, human PD-1 / PD-L1-Ig binding on Jurkat cell line over-expressing human PD-1 (Jurkat-PD-1) (Homo sapiens, UniProt Q15116).
T1 construct: expressed in transfected cells; host or cells: Jurkat
T1 sequence (Q15116 25-288): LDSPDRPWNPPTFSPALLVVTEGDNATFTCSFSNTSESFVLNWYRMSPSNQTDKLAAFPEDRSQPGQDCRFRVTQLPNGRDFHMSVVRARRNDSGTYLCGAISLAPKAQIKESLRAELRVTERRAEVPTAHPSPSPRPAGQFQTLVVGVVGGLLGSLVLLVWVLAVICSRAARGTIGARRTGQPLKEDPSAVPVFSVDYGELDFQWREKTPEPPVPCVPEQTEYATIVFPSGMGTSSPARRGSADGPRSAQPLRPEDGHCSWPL
Briefly: Jurkat-PD-1 Cell Binding High-Content Screening Assay (CBA). Type of test: cell-based. As to conditions: Jurkat-PD-1 cells, PE-labeled PD-L1-Ig 20 nM final; read-out: Jurkat HPD1_PDL1 IC50. The method, boiled down:
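Compounds were preincubated with Jurkat-hPD-1 cells in DMEM plus 10% fetal calf serum for 2 h at 37° C. Phycoerythrin-labeled PD-L1-Ig (20 nM final) was then added for 1 hour. Cells were fixed in 4% paraformaldehyde with Hoechst 33342, and bound fluorescence was quantified by high-content imaging.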
For `CC(C)C[C@H]1NC(=O)[C@H](CCCN)NC(=O)[C@H](CCC(=O)O)NC(=O)[C@H](Cc2ccc(-c3ccccc3)cc2)NC(=O)[C@H](C(C)C)NC(=O)[C@H](Cc2c[nH]c3ccccc23)NC(=O)[C@H](CC(=O)O)NC(=O)[C@H](Cc2ccc(OCC(=O)O)cc2)NC(=O)[C@H](CN)NC(=O)CSC[C@@H](C(=O)N[C@@H](C)C(N)=O)NC(=O)[C@H]([C@@H](C)O)NC(=O)[C@H](C(C)C)NC(=O)[C@H](Cc2cccc(C(F)(F)F)c2)NC(=O)[C@H](CCN)NC1=O` [Compound 1468] ({CH2CO}-[Dap]Y(Carboxymethyl)DWV[Bip]E[Orn][dL][Dab][Phe(3-CF3)]VTCA-NH2; thioether N-14), the IC50 stood at 0.0735 µM.

Consider `COc1cccc(C[C@@H]2NC(=O)[C@H](CCN)NC(=O)[C@@H](CC(C)C)NC(=O)[C@H](CCCN)NC(=O)[C@H](CCC(=O)O)NC(=O)[C@H](Cc3ccc(-c4ccccc4)cc3)NC(=O)[C@H](C(C)C)NC(=O)[C@H](Cc3c[nH]c4ccccc34)NC(=O)[C@H](CC(=O)O)NC(=O)[C@H](Cc3ccc(OCC(=O)O)cc3)NC(=O)[C@H](CN)NC(=O)CSC[C@@H](C(=O)N[C@@H](C)C(N)=O)NC(=O)[C@H]([C@@H](C)O)NC(=O)[C@H](C(C)C)NC2=O)c1` [Compound 1469] ({CH2CO}-[Dap]Y(Carboxymethyl)DWV[Bip]E[Orn][dL][Dab][Phe(3-OMe)]VTCA-NH2; thioether N-14), for which the half-inhibitory concentration (IC50) is 0.0296 µM. On to `Cc1cccc(C[C@@H]2NC(=O)[C@H](CCN)NC(=O)[C@@H](CC(C)C)NC(=O)[C@H](CCCN)NC(=O)[C@H](CCC(=O)O)NC(=O)[C@H](Cc3ccc(-c4ccccc4)cc3)NC(=O)[C@H](C(C)C)NC(=O)[C@H](Cc3c[nH]c4ccccc34)NC(=O)[C@H](CC(=O)O)NC(=O)[C@H](Cc3ccc(OCC(=O)O)cc3)NC(=O)[C@H](CN)NC(=O)CSC[C@@H](C(=O)N[C@@H](C)C(N)=O)NC(=O)[C@H]([C@@H](C)O)NC(=O)[C@H](C(C)C)NC2=O)c1` [Compound 1470] ({CH2CO}-[Dap]Y(Carboxymethyl)DWV[Bip]E[Orn][dL][Dab][Phe(3-Me)]VTCA-NH2; thioether N-14), for which the IC50 came to 0.0546 µM.

For `Cc1ccc(C[C@@H]2NC(=O)[C@H](CCN)NC(=O)[C@@H](CC(C)C)NC(=O)[C@H](CCCN)NC(=O)[C@H](CCC(=O)O)NC(=O)[C@H](Cc3ccc(-c4ccccc4)cc3)NC(=O)[C@H](C(C)C)NC(=O)[C@H](Cc3c[nH]c4ccccc34)NC(=O)[C@H](CC(=O)O)NC(=O)[C@H](Cc3ccc(OCC(=O)O)cc3)NC(=O)[C@H](CN)NC(=O)CSC[C@@H](C(=O)N[C@@H](C)C(N)=O)NC(=O)[C@H]([C@@H](C)O)NC(=O)[C@H](C(C)C)NC2=O)cc1` [Compound 1471] ({CH2CO}-[Dap]Y(Carboxymethyl)DWV[Bip]E[Orn][dL][Dab][Phe(4-Me)]VTCA-NH2; thioether N-14), the IC50 amounted to 0.305 µM. Turning to `CC(C)C[C@H]1NC(=O)[C@H](CCCN)NC(=O)[C@H](CCC(=O)O)NC(=O)[C@H](Cc2ccc(-c3ccccc3)cc2)NC(=O)[C@H](C(C)C)NC(=O)[C@H](Cc2c[nH]c3ccccc23)NC(=O)[C@H](CC(=O)O)NC(=O)[C@H](Cc2ccc(OCC(=O)O)cc2)NC(=O)[C@H](CN)NC(=O)CSC[C@@H](C(=O)N[C@@H](C)C(N)=O)NC(=O)[C@H]([C@@H](C)O)NC(=O)[C@H](C(C)C)NC(=O)[C@H](Cc2ccc(Cl)cc2)NC(=O)[C@H](CCN)NC1=O` [Compound 1472] ({CH2CO}-[Dap]Y(Carboxymethyl)DWV[Bip]E[Orn][dL][Dab][Phe(4-Cl)]VTCA-NH2; thioether N-14), the 50% inhibitory concentration (IC50) stood at 0.128 µM. As for `CC(C)C[C@H]1NC(=O)[C@H](CCCN)NC(=O)[C@H](CCC(=O)O)NC(=O)[C@H](Cc2ccc(-c3ccccc3)cc2)NC(=O)[C@H](C(C)C)NC(=O)[C@H](Cc2c[nH]c3ccccc23)NC(=O)[C@H](CC(=O)O)NC(=O)[C@H](Cc2ccc(OCC(=O)O)cc2)NC(=O)[C@H](CN)NC(=O)CSC[C@@H](C(=O)N[C@@H](C)C(N)=O)NC(=O)[C@H]([C@@H](C)O)NC(=O)[C@H](C(C)C)NC(=O)[C@H](Cc2ccc(N)cc2)NC(=O)[C@H](CCN)NC1=O` [Compound 1473] ({CH2CO}-[Dap]Y(Carboxymethyl)DWV[Bip]E[Orn][dL][Dab][Phe(4-NH2)]VTCA-NH2; thioether N-14), the figure is 0.801 µM. Consider `CC(C)C[C@H]1NC(=O)[C@H](CCCN)NC(=O)[C@H](CCC(=O)O)NC(=O)[C@H](Cc2ccc(-c3ccccc3)cc2)NC(=O)[C@H](C(C)C)NC(=O)[C@H](Cc2c[nH]c3ccccc23)NC(=O)[C@H](CC(=O)O)NC(=O)[C@H](Cc2ccc(OCC(=O)O)cc2)NC(=O)[C@H](CN)NC(=O)CSC[C@@H](C(=O)N[C@@H](C)C(N)=O)NC(=O)[C@H]([C@@H](C)O)NC(=O)[C@H](C(C)C)NC(=O)[C@H](Cc2cccc3ccccc23)NC(=O)[C@H](CCN)NC1=O` [Compound 1474], for which the IC50 amounted to 0.0686 µM. As for `CC(C)C[C@H]1NC(=O)[C@H](CCCN)NC(=O)[C@H](CCC(=O)O)NC(=O)[C@H](Cc2ccc(-c3ccccc3)cc2)NC(=O)[C@H](C(C)C)NC(=O)[C@H](Cc2c[nH]c3ccccc23)NC(=O)[C@H](CC(=O)O)NC(=O)[C@H](Cc2ccc(OCC(=O)O)cc2)NC(=O)[C@H](CN)NC(=O)CSC[C@@H](C(=O)N[C@@H](C)C(N)=O)NC(=O)[C@H]([C@@H](C)O)NC(=O)[C@H](C(C)C)NC(=O)[C@H](Cc2cccc(O)c2)NC(=O)[C@H](CCN)NC1=O` [Compound 1475] ({CH2CO}-[Dap]Y(Carboxymethyl)DWV[Bip]E[Orn][dL][Dab][mTyr]VTCA-NH2; thioether N-14), the figure is 0.12 µM. `CC(C)C[C@H]1NC(=O)[C@H](CCCN)NC(=O)[C@H](CCC(=O)O)NC(=O)[C@H](Cc2ccc(-c3ccccc3)cc2)NC(=O)[C@H](C(C)C)NC(=O)[C@H](Cc2c[nH]c3ccccc23)NC(=O)[C@H](CC(=O)O)NC(=O)[C@H](Cc2ccc(OCC(=O)O)cc2)NC(=O)[C@H](CN)NC(=O)CSC[C@@H](C(=O)N[C@@H](C)C(N)=O)NC(=O)[C@H]([C@@H](C)O)NC(=O)[C@H](C(C)C)NC(=O)[C@H](Cc2cc(F)cc(F)c2)NC(=O)[C@H](CCN)NC1=O` [Compound 1476] ({CH2CO}-[Dap]Y(Carboxymethyl)DWV[Bip]E[Orn][dL][Dab][Phe(3,5-F2)]VTCA-NH2; thioether N-14): the half-maximal inhibitory concentration (IC50) worked out at 0.033 µM.

Consider `CC(C)C[C@H]1NC(=O)[C@H](CCCN)NC(=O)[C@H](CCC(=O)O)NC(=O)[C@H](Cc2ccc(-c3ccccc3)cc2)NC(=O)[C@H](C(C)C)NC(=O)[C@H](Cc2c[nH]c3ccccc23)NC(=O)[C@H](CC(=O)O)NC(=O)[C@H](Cc2ccc(OCC(=O)O)cc2)NC(=O)[C@H](CN)NC(=O)CSC[C@@H](C(=O)N[C@@H](C)C(N)=O)NC(=O)[C@H]([C@@H](C)O)NC(=O)[C@H](C(C)C)NC(=O)[C@H](Cc2cc(F)c(F)cc2F)NC(=O)[C@H](CCN)NC1=O` [Compound 1477], for which the IC50 was determined as 0.144 µM.

As to `CC(C)C[C@H]1NC(=O)[C@H](CCCN)NC(=O)[C@H](CCC(=O)O)NC(=O)[C@H](Cc2ccc(-c3ccccc3)cc2)NC(=O)[C@H](C(C)C)NC(=O)[C@H](Cc2c[nH]c3ccccc23)NC(=O)[C@H](CC(=O)O)NC(=O)[C@H](Cc2ccc(OCC(=O)O)cc2)NC(=O)[C@H](CN)NC(=O)CSC[C@@H](C(=O)N[C@@H](C)C(N)=O)NC(=O)[C@H]([C@@H](C)O)NC(=O)[C@H](C(C)C)NC(=O)[C@H](Cc2ccc(Cl)cc2Cl)NC(=O)[C@H](CCN)NC1=O` [Compound 1478] ({CH2CO}-[Dap]Y(Carboxymethyl)DWV[Bip]E[Orn][dL][Dab][Phe(2,4-Cl2)]VTCA-NH2; thioether N-14), the IC50 is 0.12 µM.

Take `CC(C)C[C@H]1NC(=O)[C@H](CCCN)NC(=O)[C@H](CCC(=O)O)NC(=O)[C@H](Cc2ccc(-c3ccccc3)cc2)NC(=O)[C@H](C(C)C)NC(=O)[C@H](Cc2c[nH]c3ccccc23)NC(=O)[C@H](CC(=O)O)NC(=O)[C@H](Cc2ccc(OCC(=O)O)cc2)NC(=O)[C@H](CN)NC(=O)CSC[C@@H](C(=O)N[C@@H](C)C(N)=O)NC(=O)[C@H]([C@@H](C)O)NC(=O)[C@H](C(C)C)NC(=O)[C@H](Cc2ccc(F)cc2F)NC(=O)[C@H](CCN)NC1=O` [Compound 1479] ({CH2CO}-[Dap]Y(Carboxymethyl)DWV[Bip]E[Orn][dL][Dab][Phe(2,4-F2)]VTCA-NH2; thioether N-14): the IC50 was found to be 0.347 µM. Then `CC(C)C[C@H]1NC(=O)[C@H](CCCN)NC(=O)[C@H](CCC(=O)O)NC(=O)[C@H](Cc2ccc(-c3ccccc3)cc2)NC(=O)[C@H](C(C)C)NC(=O)[C@H](Cc2c[nH]c3ccccc23)NC(=O)[C@H](CC(=O)O)NC(=O)[C@H](Cc2ccc(OCC(=O)O)cc2)NC(=O)[C@H](CN)NC(=O)CSC[C@@H](C(=O)N[C@@H](C)C(N)=O)NC(=O)[C@H]([C@@H](C)O)NC(=O)[C@H](C(C)C)NC(=O)[C@H](Cc2cc(F)c(F)c(F)c2)NC(=O)[C@H](CCN)NC1=O` [Compound 1480] ({CH2CO}-[Dap]Y(Carboxymethyl)DWV[Bip]E[Orn][dL][Dab][Phe(3,4,5-F3)]VTCA-NH2; thioether N-14), with 0.15 µM.

With `CC(C)C[C@H]1NC(=O)[C@H](CCCN)NC(=O)[C@H](CCC(=O)O)NC(=O)[C@H](Cc2ccc(-c3ccccc3)cc2)NC(=O)[C@H](C(C)C)NC(=O)[C@H](Cc2c[nH]c3ccccc23)NC(=O)[C@H](CC(=O)O)NC(=O)[C@H](Cc2ccc(OCC(=O)O)cc2)NC(=O)[C@H](CN)NC(=O)CSC[C@@H](C(=O)N[C@@H](C)C(N)=O)NC(=O)[C@H]([C@@H](C)O)NC(=O)[C@H](C(C)C)NC(=O)[C@H](Cc2ccc(Cl)c(Cl)c2)NC(=O)[C@H](CCN)NC1=O` [Compound 1481] ({CH2CO}-[Dap]Y(Carboxymethyl)DWV[Bip]E[Orn][dL][Dab][Phe(3,4-Cl2)]VTCA-NH2; thioether N-14), the 50% inhibitory concentration (IC50) is 0.0672 µM.
